According to publication PMC9090415, “Discovery of small molecule inhibitors of Plasmodium falciparum apicoplast DNA polymerase” (Journal of Enzyme Inhibition and Medicinal Chemistry, 2022):

Biological target: P. falciparum apicoplast DNA polymerase (Pf-apPOL) (Plasmodium falciparum, UniProt Q8ILY1)
Test: Fluorescence-based high-throughput DNA polymerase assay (molecular beacon), primary screen and dose-response;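 as to % inhibition Apol 40': compound concentration given in µM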
Type: biochemical
Conditions: for DNA Pol: 90 min, 10 µM
Protocol: The HT assay employs a molecular beacon, a stem-loop DNA template with a Cy3 dye and the Black Hole Quencher on the 3′ and 5′ ends of the DNA, respectively. Pf-apPOL concentration is based on a calculated absorptivity of ε280 = 56750 M^−1 cm^−1. Reactions were carried out at 25 °C, using Corning 3575 […] (well-volume, 20 µL). Assays testing for compound inhibition composed of reaction buffer (pH 7.9 in 50 mM potassium acetate, 20 mM Tris-acetate and 10 mM magnesium acetate), Pf-apPOL (20 nM), DNA substrate (20 nM), dNTPs (6 µM), and compound (10 µM in DMSO). The DNA and nucleotide substrates (dNTPs) were at concentrations of 20 nM and 6 µM, respectively, in the assay. Pf-apPOL was incubated in the reaction buffer with dNTPs and the compound of interest (10 µM, in the assay) at 25 °C for 10 min. The DNA substrate was then added and the reaction was allowed to proceed for 90 min at 25 °C.
Each assay plate contained 16 negative controls (no Pf-apPOL, DMSO present) and 16 positive controls (Pf-apPOL present, no DMSO). The fluorescence of each well was determined using a BioTek Synergy Neo fluorescence plate reader using excitation and emission wavelengths of 555 and 570 nm, respectively.
In the above, Min is the average of fluorescence emission of the negative controls (substrate only), Max the average fluorescence emission from the positive controls (enzyme + substrate), and Test the emission from the assays in the presence of compounds (enzyme + compound + substrates). […] […] The IC50 of each compound was determined using Equation (2): (2) IC50= Vmax/(1+ (I/IC50)^n)
In the above, n measures cooperativity, with n > 1 indicating synergistic binding of more than a single molecule of the compound.
To identify apPOL inhibitors we utilised our previously developed high-throughput DNA polymerase assay. The HT assay is based on a molecular beacon DNA template that forms a stem-loop with a Cy3 dye and the Black Hole Quencher on the 3′ and 5′ ends of the DNA, respectively. DNA polymerase activity extends an annealed primer through the stem region, displacing the fluorophore from the quencher, thereby increasing its fluorescence (Figure 1(A)). The assay accurately recapitulates the kinetic behaviour of apPOL, as measured through more conventional low-throughput gel-based assays. The Z′ factor for the assay described here was 0.9 across all plates (data not shown).
Figure 1. High-throughput screening. (A) The fluorescent-based DNA polymerase assay used to screen the compound libraries. The DNA template strand is a hairpin loop with a primer annealed to the loop. The 3’ end of the primer is 11 bases away from the 6 bp duplex. Strand displacement activity of the DNA polymerase separates the Cy3 dye from the Black hole quencher leading to an increase in fluorescent signal. (B) The high-throughput assay workflow. The DNA polymerase is incubated with […] compound for 10 min prior to addition of the hairpin substrate. The reaction is quenched at 3 different time points and the fluorescent signal is measured and % inhibition is determined using the provided equation.

P. falciparum apicoplast DNA polymerase (Pf-apPOL), sequence (Q8ILY1 entry or part of it): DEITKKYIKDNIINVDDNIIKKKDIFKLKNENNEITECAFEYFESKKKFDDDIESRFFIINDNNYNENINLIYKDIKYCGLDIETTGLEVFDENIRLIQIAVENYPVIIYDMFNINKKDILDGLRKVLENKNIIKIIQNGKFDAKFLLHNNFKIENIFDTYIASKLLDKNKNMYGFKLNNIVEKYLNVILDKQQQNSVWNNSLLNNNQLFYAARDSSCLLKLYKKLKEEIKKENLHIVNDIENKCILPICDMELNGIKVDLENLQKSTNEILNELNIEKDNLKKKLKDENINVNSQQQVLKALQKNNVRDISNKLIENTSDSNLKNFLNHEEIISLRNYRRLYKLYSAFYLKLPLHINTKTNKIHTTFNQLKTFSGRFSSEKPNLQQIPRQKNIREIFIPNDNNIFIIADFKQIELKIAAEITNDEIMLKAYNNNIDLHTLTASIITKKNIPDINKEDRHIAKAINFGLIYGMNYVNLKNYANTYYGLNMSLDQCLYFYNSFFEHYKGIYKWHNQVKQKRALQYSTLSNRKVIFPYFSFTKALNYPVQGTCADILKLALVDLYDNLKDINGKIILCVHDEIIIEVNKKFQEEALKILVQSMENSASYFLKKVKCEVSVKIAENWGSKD

COc1ccccc1C1CC(=O)Oc2cc3c(cc21)OCO3 (centres unmarked) [KU0104502]
DNA Pol ('DNA Pol' of the 186 hits list (screen value)): 42
% inhibition Apo pol 10' (DRC-1, conc 2.5): 16.5835%
% inhibition Apo pol 10' (DRC-1, conc 5): 35.5684%
% inhibition Apo pol 10' (DRC-1, conc 10): 61.1126%
% inhibition Apo pol 10' (DRC-1, conc 20): 76.0203%
% inhibition Apo pol 10' (DRC-1, conc 40): 89.9974%
% inhibition Apo pol 10' (DRC-1, conc 80): 93.475%
% inhibition Apol 90' (DRC-1, conc 2.5): 2.531%
% inhibition Apol 90' (DRC-1, conc 5): 13.2862%
% inhibition Apol 90' (DRC-1, conc 10): 34.6587%
% inhibition Apol 90' (DRC-1, conc 20): 54.2638%
% inhibition Apol 90' (DRC-1, conc 40): 81.0345%
% inhibition Apol 90' (DRC-1, conc 80): 93.8969%
% inhibition apPOL 180' (DRC-1, conc 2.5): -4.384%
% inhibition apPOL 180' (DRC-1, conc 5): 1.7201%
% inhibition apPOL 180' (DRC-1, conc 10): 18.8078%
% inhibition apPOL 180' (DRC-1, conc 20): 38.0211%
% inhibition apPOL 180' (DRC-1, conc 40): 74.6782%
% inhibition apPOL 180' (DRC-1, conc 80): 93.9211%
% inhibition Apo pol 5' (DRC-2, conc 2.5): 10%
% inhibition Apo pol 5' (DRC-2, conc 5): 34%
% inhibition Apo pol 5' (DRC-2, conc 10): 50%
% inhibition Apo pol 5' (DRC-2, conc 20): 59%
% inhibition Apo pol 5' (DRC-2, conc 40): 65%
% inhibition Apo pol 5' (DRC-2, conc 80): 66%
% inhibition Apol 40' (DRC-2, conc 2.5): 4.3%
% inhibition Apol 40' (DRC-2, conc 5): 27%
% inhibition Apol 40' (DRC-2, conc 10): 47%
% inhibition Apol 40' (DRC-2, conc 20): 62%
% inhibition Apol 40' (DRC-2, conc 40): 75%
% inhibition Apol 40' (DRC-2, conc 80): 80%
% inhibition ApPOL 90' (DRC-2, conc 2.5): 1.26%
% inhibition ApPOL 90' (DRC-2, conc 5): 23%
% inhibition ApPOL 90' (DRC-2, conc 10): 42%
% inhibition ApPOL 90' (DRC-2, conc 20): 60%
% inhibition ApPOL 90' (DRC-2, conc 40): 77%
% inhibition ApPOL 90' (DRC-2, conc 80): 82%
% inhibition apPOL 180' (DRC-2, conc 2.5): -2.17%
% inhibition apPOL 180' (DRC-2, conc 5): 12%
% inhibition apPOL 180' (DRC-2, conc 10): 31%
% inhibition apPOL 180' (DRC-2, conc 20): 53%
% inhibition apPOL 180' (DRC-2, conc 40): 78%
% inhibition apPOL 180' (DRC-2, conc 80): 85%
DNA Pol (primary screen value, "DNA Pol"): 42
